Source: patent US20090018166A1, “New Pyridine Analogues X 161” (ASTRAZENECA AB, priority 2007, published 2009)

target: T1, P2Y12 receptor (Homo sapiens, UniProt Q9H244); assay: Functional inhibition of 2-Me-S-ADP induced P2Y12 signalling (35S-GTPγS binding, membranes from P2Y12 transfected CHO-cells); format: biochemical; details: 35S-GTPγS, EC80 of 2-methyl-thio-adenosine diphosphate, P2Y12 CHO membranes; value given in each example; read-out: GTPγS(IC50 μM)
T1 construct: expressed in transfected cells; host or cells: CHO cells (membranes)
Protocol: Functional inhibition of- the P2Y12 receptor can be measured by in vitro assays using cell membranes from P2Y12 transfected CHO-cells, the methodology is indicated below.
Functional inhibition of 2-Me-S-ADP induced P2Y12 signalling: 5 μg of membranes were diluted in 200 μl of 200 mM NaCl, 1 mM MgCl2, 50 mM HEPES (pH 7.4), 0.01% BSA, 30 μg/ml saponin and 10 μM GDP. To this was added an EC80 concentration of agonist (2-methyl-thio-adenosine diphosphate), the required concentration of test compound and 0.1 μCi ^35S-GTPγS. The reaction was allowed to proceed at 30° C. for 45 min. Samples were then transferred on to GF/B filters using a cell harvester and washed with wash buffer (50 mM Tris (pH 7.4), 5 mM MgCl2, 50 mM NaCl). Filters were then covered with scintilant and counted for the amount of ^35S-GTPγS retained by the filter. Maximum activity was that determined in the presence of the agonist and minimum activity in the absence of the agonist following subtraction of the value determined for non-specific activity. The effect of compounds at various concentrations was plotted according to the equation
y=A+((B−A)/(1+((C/x)̂D)))
and IC50 estimated where A is the bottom plateau of the curve i.e. the final minimum y value B is the top of the plateau of the curve i.e. the final maximum y value C is the x value at the middle of the curve. This represents the log EC50 value when A+B=100 D is the slope factor. x is the original known x values. Y is the original known y values.

T1 sequence (Q9H244 whole entry): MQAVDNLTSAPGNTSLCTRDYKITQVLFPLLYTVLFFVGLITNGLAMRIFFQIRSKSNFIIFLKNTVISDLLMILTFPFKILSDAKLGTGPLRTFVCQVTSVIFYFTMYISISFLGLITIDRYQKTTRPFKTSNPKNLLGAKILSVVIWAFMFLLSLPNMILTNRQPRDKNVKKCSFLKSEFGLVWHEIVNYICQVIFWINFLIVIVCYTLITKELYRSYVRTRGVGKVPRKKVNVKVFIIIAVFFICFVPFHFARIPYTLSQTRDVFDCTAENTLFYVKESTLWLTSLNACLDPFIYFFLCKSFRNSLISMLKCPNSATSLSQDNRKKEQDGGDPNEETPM

IC50	Structure (SMILES)
0.017 µM	CCCCC(=O)c1cc(C#N)c(N2CCC(C(=O)NS(=O)(=O)N(C)c3ccccc3)CC2)nc1CN1CCCC1=O [Example 22, 1-{3-Cyano-6-[(2-oxopyrrolidin-1-yl)methyl]-5-pentanoylpyridin-2-yl}-N-{[methyl(phenyl)amino]sulfonyl}piperidine-4-carboxamide]
0.042 µM	CN(c1ccccc1)S(=O)(=O)NC(=O)C1CCN(c2nc(CN3CCCC3=O)c(C(=O)C3CC3)cc2C#N)CC1 [Example 23, 1-{3-Cyano-5-(cyclopropylcarbonyl)-6-[(2-oxopyrrolidin-1-yl)methyl]pyridin-2-yl}-N-{[methyl(phenyl)amino]sulfonyl}piperidine-4-carboxamide]
0.428 µM	N#Cc1cc(C(=O)C2CC2)c(CN2CCCC2=O)nc1N1CCC(C(=O)NS(=O)(=O)CC2CCC2)CC1 [Example 24, 1-{3-Cyano-5-(cyclopropylcarbonyl)-6-[(2-oxopyrrolidin-1-yl)methyl]pyridin-2-yl}-N-[(cyclobutylmethyl)sulfonyl]piperidine-4-carboxamide]
0.026 µM	CN(c1ccc(F)cc1)S(=O)(=O)NC(=O)C1CCN(c2nc(CN3CCCC3=O)c(C(=O)C3CC3)cc2C#N)CC1 [Example 25, 1-{3-Cyano-5-(cyclopropylcarbonyl)-6-[(2-oxopyrrolidin-1-yl)methyl]pyridin-2-yl}-N-{[(4-fluorophenyl)(methyl)amino]sulfonyl}piperidine-4-carboxamide]
0.017 µM	C=CCCC(=O)c1cc(C#N)c(N2CCC(C(=O)NS(=O)(=O)Cc3ccccc3)CC2)nc1CN1CCCC1=O [Example 26, N-(benzylsulfonyl)-1-{3-cyano-6-[(2-oxopyrrolidin-1-yl)methyl]-5-pent-4-enoylpyridin-2-yl}piperidine-4-carboxamide]
0.02 µM	C=CCCC(=O)c1cc(C#N)c(N2CCC(C(=O)NS(=O)(=O)CC3CCCC3)CC2)nc1CN1CCCC1=O [Example 27, 1-{3-cyano-6-[(2-oxopyrrolidin-1-yl)methyl]-5-pent-4-enoylpyridin-2-yl}-N-[(cyclopentylmethyl)sulfonyl]piperidine-4-carboxamide]
0.022 µM	C=CCCC(=O)c1cc(C#N)c(N2CCC(C(=O)NS(=O)(=O)N(C)c3ccc(F)cc3)CC2)nc1CN1CCCC1=O [Example 28, 1-{3-cyano-6-[(2-oxopyrrolidin-1-yl)methyl]-5-pent-4-enoylpyridin-2-yl}-N-{[(4-fluorophenyl)(methyl)amino]sulfonyl}piperidine-4-carboxamide]
0.013 µM	C=CCCC(=O)c1cc(C#N)c(N2CCC(C(=O)NS(=O)(=O)N(C)c3ccccc3)CC2)nc1CN1CCCC1=O [Example 29, 1-{3-cyano-6-[(2-oxopyrrolidin-1-yl)methyl]-5-pent-4-enoylpyridin-2-yl}-N-{[methyl(phenyl)amino]sulfonyl}piperidine-4-carboxamide]
0.062 µM	CCCC(=O)c1cc(Cl)c(N2CCC(C(=O)NS(=O)(=O)Cc3ccccc3)CC2)nc1CN1CCCC1=O [Example 30, N-(Benzylsulfonyl)-1-{5-butyryl-3-chloro-6-[(2-oxopyrrolidin-1-yl)methyl]pyridin-2-yl}piperidine-4-carboxamide]
0.109 µM	CCCC(=O)c1cc(Cl)c(N2CCC(C(=O)NS(=O)(=O)N(C)c3ccc(F)cc3)CC2)nc1CN1CCCC1=O [Example 31, 1-{5-Butyryl-3-chloro-6-[(2-oxopyrrolidin-1-yl)methyl]pyridin-2-yl}-N-{[(4-fluorophenyl)(methyl)amino]sulfonyl}piperidine-4-carboxamide]
0.055 µM	CCCC(=O)c1cc(Cl)c(N2CCC(C(=O)NS(=O)(=O)Cc3ccc(C)cc3)CC2)nc1CN1CCCC1=O [Example 32, 1-{5-Butyryl-3-chloro-6-[(2-oxopyrrolidin-1-yl)methyl]pyridin-2-yl}-N-[(4-methylbenzyl)sulfonyl]piperidine-4-carboxamide]
0.011 µM	CCCC(=O)c1cc(C#N)c(N2CCC(C(=O)NS(=O)(=O)N(C)c3ccc(F)cc3)CC2)nc1CN1CCCC1=O [Example 33, 1-{5-Butyryl-3-cyano-6-[(2-oxopyrrolidin-1-yl)methyl]pyridin-2-yl}-N-{[(4-fluorophenyl)(methyl)amino]sulfonyl}piperidine-4-carboxamide]
0.012 µM	CCCC(=O)c1cc(C#N)c(N2CCC(C(=O)NS(=O)(=O)N(C)c3ccccc3)CC2)nc1CN1CCCC1=O [Example 34, 1-{5-Butyryl-3-cyano-6-[(2-oxopyrrolidin-1-yl)methyl]pyridin-2-yl}-N-{[methyl(phenyl)amino]sulfonyl}piperidine-4-carboxamide]
0.0097 µM	CCCC(=O)c1cc(C#N)c(N2CCC(C(=O)NS(=O)(=O)Cc3ccc(OC)cc3)CC2)nc1CN1CCCC1=O [Example 35, 1-{5-Butyryl-3-cyano-6-[(2-oxopyrrolidin-1-yl)methyl]pyridin-2-yl}-N-[(4-methoxybenzyl)sulfonyl]piperidine-4-carboxamide]
0.014 µM	CCCC(=O)c1cc(C#N)c(N2CCC(C(=O)NS(=O)(=O)CC3CCCCC3)CC2)nc1CN1CCCC1=O [Example 36, 1-{5-Butyryl-3-cyano-6-[(2-oxopyrrolidin-1-yl)methyl]pyridin-2-yl}-N-[(cyclohexylmethyl)sulfonyl]piperidine-4-carboxamide]
0.019 µM	CCCC(=O)c1cc(C#N)c(N2CCC(C(=O)NS(=O)(=O)Nc3ccc(F)cc3)CC2)nc1CN1CCCC1=O [Example 37, 1-{5-Butyryl-3-cyano-6-[(2-oxopyrrolidin-1-yl)methyl]pyridin-2-yl}-N-{[(4-fluorophenyl)amino]sulfonyl}piperidine-4-carboxamide]
0.033 µM	CCCC(=O)c1cc(C#N)c(N2CCC(C(=O)NS(=O)(=O)Nc3ccccc3)CC2)nc1CN1CCCC1=O [Example 38, N-(Anilinosulfonyl)-1-{5-butyryl-3-cyano-6-[(2-oxopyrrolidin-1-yl)methyl]pyridin-2-yl}piperidine-4-carboxamide]
0.0081 µM	C=CCCC(=O)c1cc(C#N)c(N2CCC(C(=O)NS(=O)(=O)Cc3ccc(C)cc3)CC2)nc1CN1CCCC1=O [Example 40, 1-{3-cyano-6-[(2-oxopyrrolidin-1-yl)methyl]-5-pent-4-enoylpyridin-2-yl}-N-[(4-methylbenzyl)sulfonyl]piperidine-4-carboxamide]
0.009 µM	C=CCCC(=O)c1cc(C#N)c(N2CCC(C(=O)NS(=O)(=O)Cc3ccc(F)cc3F)CC2)nc1CN1CCCC1=O [Example 41, 1-{3-cyano-6-[(2-oxopyrrolidin-1-yl)methyl]-5-pent-4-enoylpyridin-2-yl}-N-[(2,4-difluorobenzyl)sulfonyl]piperidine-4-carboxamide]
0.016 µM	N#Cc1cc(C(=O)CCC(F)(F)F)c(CN2CCCC2=O)nc1N1CCC(C(=O)NS(=O)(=O)Cc2ccc(F)cc2F)CC1 [Example 42, 1-{3-Cyano-6-[(2-oxopyrrolidin-1-yl)methyl]-5-(4,4,4-trifluorobutanoyl)pyridin-2-yl}-N-[(2,4-difluorobenzyl)sulfonyl]piperidine-4-carboxamide]
0.019 µM	Cc1ccc(CS(=O)(=O)NC(=O)C2CCN(c3nc(CN4CCCC4=O)c(C(=O)CCC(F)(F)F)cc3C#N)CC2)cc1 [Example 43, 1-{3-cyano-6-[(2-oxopyrrolidin-1-yl)methyl]-5-(4,4,4-trifluorobutanoyl)pyridin-2-yl}-N-[(4-methylbenzyl)sulfonyl]piperidine-4-carboxamide]
0.146 µM	N#Cc1cc(C(=O)CCC(F)(F)F)c(CN2CCCC2=O)nc1N1CCC(C(=O)NS(=O)(=O)CC2CCCC2)CC1 [Example 44, 1-{3-cyano-6-[(2-oxopyrrolidin-1-yl)methyl]-5-(4,4,4-trifluorobutanoyl)pyridin-2-yl}-N-[(cyclopentylmethyl)sulfonyl]piperidine-4-carboxamide]
0.05 µM	CN(c1ccc(F)cc1)S(=O)(=O)NC(=O)C1CCN(c2nc(CN3CCCC3=O)c(C(=O)CCC(F)(F)F)cc2C#N)CC1 [Example 45, 1-{3-cyano-6-[(2-oxopyrrolidin-1-yl)methyl]-5-(4,4,4-trifluorobutanoyl)pyridin-2-yl}-N-{[(4-fluorophenyl)(methyl)amino]sulfonyl}piperidine-4-carboxamide]
0.021 µM	CCCCC(=O)c1cc(C#N)c(N2CCC(C(=O)NS(=O)(=O)Nc3ccc(F)cc3)CC2)nc1CN1CCCC1=O [Example 46, 1-{3-cyano-6-[(2-oxopyrrolidin-1-yl)methyl]-5-pentanoylpyridin-2-yl}-N-{[(4-fluorophenyl)amino]sulfonyl}piperidine-4-carboxamide]
0.043 µM	CCCCC(=O)c1cc(C#N)c(N2CCC(C(=O)NS(=O)(=O)Cc3ccc(C#N)cc3)CC2)nc1CN1CCCC1=O [Example 47, N-[(4-cyanobenzyl)sulfonyl]-1-{3-cyano-6-[(2-oxopyrrolidin-1-yl)methyl]-5-pentanoylpyridin-2-yl}piperidine-4-carboxamide]
0.023 µM	CCCCC(=O)c1cc(C#N)c(N2CCC(C(=O)NS(=O)(=O)CC3CCCCC3)CC2)nc1CN1CCCC1=O [Example 48, 1-{3-cyano-6-[(2-oxopyrrolidin-1-yl)methyl]-5-pentanoylpyridin-2-yl}-N-[(cyclohexylmethyl)sulfonyl]piperidine-4-carboxamide]
